Data from patent US20230201323A1, “VACCINE FORMULATIONS” (EUUALY S.A., priority 2020, published 2023).
Where a SMILES comes first, the peptide text is derived from it.

Key:
wildtype C57BL/6 mice = assay: IV transfer of peptide-elicited CD4+ T cells into wildtype C57BL/6 mice, spinal cord examination; assay type: in vivo; details: 10^6 peptide-elicited CD4+ T cells per mouse IV, spinal cord ten days afterwards
Protocol: Such cells are then administered by IV injection in wildtype C57BL/6 mice (10^6 cells per mouse). Ten days afterwards, mice are sacrificed and the spinal cord isolated.
In a control experiment, 10^6 cells are administered by IV injection in wildtype C57BL/6 mice.

[1] = tested on: AQP4-specific CD4+ T cells; assay: Phenotype of CD4+ T cells from AQP4 KO C57BL/6 mice immunized with AQP4 peptide; assay type: in vivo
Protocol: The C57BL/6 (H-2b) strain is the elective animal model as its natural repertoire of CD4+ T cells contains cells activable by immunisation with AQP4 epitopes whose sequences are entirely superposable to those activating human CD4+ T cells. Besides, the homology between human and mouse AQP4 is 93%. However, due to natural tolerance to AQP4, it remains difficult to generate T cells with a pathogenic potential. Therefore, C57BL/6 mice lacking expression of AQP4 (AQP4 KO) are used.
is used at 100 μg emulsified in complete Freund's adjuvant to immunize AQP4 KO C57BL/6 mice in the footpad, followed by 3 injections of 100 μg in incomplete Freund's adjuvant at 10-days intervals. Four weeks after the last injection, the mice are sacrificed and splenocytes are prepared. After separation of CD4+ T cells from the bulk splenocytes, lymphocytes specific for peptide of SEQ ID NO:1 are isolated by incubation with magnetic beads coated with class II (H2b) molecules loaded with peptide of SEQ ID NO:1.
AQP4-specific CD4+ T cells are then phenotyped and found to belong to the Th17 subtype.
A similar experiment is carried out in AQP4 KO C57BL/6 mice immunized with the same peptide, but containing a redox motif (in bold) in its flanking residues (SEQ ID NO:2), and with alum instead of CFA/IFA

[2] = tested on: Thy1.1 CD4+ T cells obtained by immunisation with peptide of SEQ ID NO:1; assay: Mixed culture of Thy1.1 and Thy1.2 CD4+ T cells on antigen-presenting cells loaded with peptide of SEQ ID NO:1; assay type: cell-based, C57BL/6 mice; details: 1/1 mixture with Thy1.2 CD4+ T cells elicited by SEQ ID NO:2, 7 days of culture
Protocol: Next, to determine whether CD4+ T cells obtained by immunisation with peptide of SEQ ID NO:2 could suppress pathogenic CD4+ T cells obtained by immunisation with peptide of SEQ ID NO:1, mixed cultures were performed with antigen-presenting cells loaded with peptide of SEQ ID NO:1. For such in vitro experiments, the two CD4+ T cell populations were obtained from C57BL/6 mice expressing either the Thy1.1 or the Thy1.2 surface phenotypic marker, identified by specific antibodies.
Dendritic cells converted from peripheral blood monocytes were used as antigen-presenting cells. Thus, 50×10^6 cells were incubated with 10 μg of peptide of SEQ ID NO:1 for 16 h at room temperature, washed and then incubated with a 1/1 mixture of Thy1.1 CD4+ T cells obtained by immunisation with peptide of SEQ ID NO:1 and Thy1.2 CD4+ T cells obtained by immunisation with peptide of SEQ ID NO:2. The phenotype of each CD4+ T cell population was then evaluated after 7 days of culture.

[3] = tested on: CD4+ obtained from the spleen of mice immunized with peptide of SEQ ID NO:3; assay: Co-culture of CFSE-labelled CD4+ cells (SEQ ID NO:3) with CD4+ T cells from mice immunized with SEQ ID NO:4; assay type: cell-based, NOD mice
NOD mice = assay: Insulitis by pancreas histology in immunized NOD mice; assay type: in vivo; details: female NOD mice, 100 μg in aluminium hydroxide four times at a week interval from six weeks old, histology at week 15
Source text: Non-obese diabetes (NOD) mice are the most used animal model for diabetes due to the spontaneous development of insulitis, hyperglycaemia and diabetes in a context wherein both inflammation and auto-immunity play determining roles. The local lesion, insulitis, starts accumulating after a few weeks, so that therapeutic interventions should be considered as suppressive rather than preventive.
Six-weeks old female NOD mice are immunized with a peptide made of a class II-restricted T cell epitope of GAD65 (319-333: ILEVKQKGFVPFLVS, SEQ ID NO:3) or with the same peptide containing a redox motif (bold figures) in its flanking residues
Immunisation is carried out using 100 μg of peptide of SEQ ID NO:4 in aluminium hydroxide, four times at a week interval. Control mice receive peptide of SEQ ID NO:3 according to the same injection schedule.
Mice are then sacrificed at week 15, the pancreas is isolated and evaluated by histology to identify insulitis.

CD4+ T cells = assay: Phenotype and cytokine production of Balb/c CD4+ T cells expanded in vitro with Staph. aureus nuclease peptides; assay type: cell-based, Balb/c mice; details: after 2 cycles of stimulation on peptide-loaded antigen-presenting cells
Protocol: Balb/c mice kept under open conditions (not pathogen-free) show specific antibodies and CD4+ T cells towards Staph. aureus nuclease. Splenocytes are obtained from such mice to prepare CD4+ T cells. Such cells are cultured and expanded in the presence of antigen-presenting cells loaded with either peptide of sequence
After 2 cycles of stimulation, the phenotype and cytokine production of cells are examined. […] Other markers of CD4+ T cells with an immune suppressive function include DLL4 (Rubey et al. Diabetes 2020 69(5):915-926, CTLA2 (Sugita et al. J Immunol 2009 183(8):5013-22), TGF-beta2 (Mir et al. Immunology 2015 146(4):547-56, arginase (Khoshnejad et al. Mol Ther Methods Clin Dev 2020 18:652-663 and meteorin (Baht et al. Nat Metab 2020 2(3):278-289)

[4] = tested on: cells obtained by stimulation with peptide of SEQ ID NO:7; assay: Coculture of CFSE-labelled SEQ ID NO:7 cells with SEQ ID NO:8 cells, proliferation by CFSE dilution; assay type: cell-based, Balb/c mice
Protocol: Cells obtained by stimulation with peptide of SEQ ID NO:7 were labelled with CFSE and cultured together with cells obtained with peptide of SEQ ID NO:8 at a 1 to 1 ratio on antigen-presenting cells loaded with peptide of SEQ ID NO:7.
After 7 days of coculture, the proliferation of cells was measured by CFSE dilution.

C57BL/6 female mice = tested on: C57BL/6 female mice
Protocol: C57BL/6 female mice are treated with an injection of 100 μl containing 200 μg of peptide encompassing amino acid residues […], namely:
and 100 μl of complete Freund's adjuvant. In addition, […] of pertussis toxin is administered intraperitoneally on days 0 and 2 to permeate the blood-brain barrier.
One month after the date of disease induction, the spinal cord is examined for inflammatory infiltrates. Tissues are fixed in formaldehyde and stained with hematoxilin-eosin for cell counting. T cells are identified using an anti-CD3 antibody. Demyelination is detected by staining with Luxol Fast Blue (LFB).
To establish that cells of the present invention exert a suppressive effect on pathogenic T cells, two group of C57BL/6 female mice was treated by 4 weekly subcutaneous injections of 100 μg of peptide
corresponding to peptide of SEQ ID NO:5 but containing a redox motif (in bold). These injections were made with a formulation containing aluminum hydroxide as adjuvant.
A second group of mice immunized with peptide of SEQ ID NO:6 was then treated as in the positive control group, namely peptide of SEQ ID:5 with complete Freund's adjuvant and pertussis toxin.

[5] = AQP4 KO C57BL/6 mice immunized with peptide in alum

## HCPYCSIMVAFKGVWTQAFWKAV (AQP4redox; (9)..(20) core epitope) [SEQ ID NO:2, same AQP4 peptide containing a redox motif in its flanking residues]
Wildtype C57BL/6 mice
  spinal cord inflammatory lesions / infiltration: no inflammatory lesions or T lymphocytes
[1]; [5]
  factors produced by CD4+ T cells obtained from the spleen: PGE2 (prostaglandin E2) and IL-10
  markers characterizing CD4+ T cells obtained from the spleen: TIGIT and CTLA2
[2]
  phenotype of Thy1.1 CD4+ T cells (SEQ ID NO:1-elicited) in mixed culture: lost their phenotypic characteristics of Th17 cells
  proliferation of Thy1.1 CD4+ T cells (SEQ ID NO:1-elicited) in mixed culture: no proliferation

## SIMVAFKGVWTQAFWKAV (AQP4 epitope; (4)..(15) core epitope) [SEQ ID NO:1, peptide encompassing amino acid residues 21-38 of AQP4, no redox motif, reference compound]
Wildtype C57BL/6 mice
  spinal cord inflammatory lesions / infiltration: Infiltration with inflammatory cells, including AQP4-specific CD4+ T cells is observed
[1]; AQP4 KO C57BL/6 mice, 100 μg in CFA then 3 x 100 μg in IFA, splenocytes four weeks after last injection
  subtype of AQP4-specific CD4+ T cells: Th17 subtype

## HCYPCILEVKQKGFVPF (GAD65redox) [SEQ ID NO:4]
[3]; cells recovered from co-culture with SEQ ID NO:4-elicited CD4+ T cells
  capacity of recovered CFSE-labeled cells to proliferate upon presentation of cognate epitope (SEQ ID NO:3): lost their capacity to proliferate
[3]; co-culture with CD4+ T cells from spleen of mice immunized with SEQ ID NO:4
  reduction in numbers of CFSE-labelled CD4+ cells (SEQ ID NO:3) by co-culture: circa 5%
NOD mice
  islets with no sign of inflammation or cellular infiltrate: > 70%

## NTHEQHLRKS (Sa Nuclease) [SEQ ID NO:7, Staph. aureus nuclease peptide, no redox motif, reference compound]
CD4+ T cells
  cytokine production of cells obtained by stimulation: interferon gamma (IFN-γ)
  phenotype of cells obtained by stimulation: characteristics of Th1 cells

## HCYPCHNTHEQHLRKS (Sa Nucleaseredox) [SEQ ID NO:8, Staph. aureus nuclease peptide containing a redox motif]
CD4+ T cells
  cytokine production of cells obtained by stimulation: IL-4, IL-10, IL-13 and amphiregulin (AREG)
  surface expression on cells obtained by stimulation: TIGIT and BLIMP-1
[4]; 1 to 1 ratio, antigen-presenting cells loaded with SEQ ID NO:7, 7 days of coculture
  proliferation of SEQ ID NO:7-obtained cells in presence of SEQ ID NO:8-obtained cells (CFSE dilution): do not proliferate
[4]; 7 days of coculture on antigen-presenting cells loaded with SEQ ID NO:7
  phenotype of SEQ ID NO:8-obtained cells after coculture: unchanged phenotype

## ILEVKQKGFVPFLVS (GAD65 epitope) [SEQ ID NO:3, reference compound]
NOD mice
  islets with no sign of inflammation or cellular infiltrate: the reverse

## CC[C@H](C)[C@H](NC(=O)CNC(=O)[C@@H](NC(=O)[C@H](CS)NC(=O)[C@@H]1CCCN1C(=O)[C@H](Cc1ccc(O)cc1)NC(=O)[C@H](CS)NC(=O)[C@@H](N)Cc1c[nH]cn1)[C@@H](C)O)C(=O)N[C@@H](CC(C)C)C(=O)N[C@@H](CC(=O)O)C(=O)N[C@@H](CO)C(=O)N[C@H](C(=O)NCC(=O)N[C@@H](CCCNC(=N)N)C(=O)N[C@@H](Cc1ccccc1)C(=O)N[C@@H](Cc1ccccc1)C(=O)N[C@@H](CO)C(=O)NCC(=O)O)[C@@H](C)CC [SEQ ID NO:6, HCYPCTGILDSIGRFFSG] (H-HCYPCTGILDSIGRFFSG-OH)
C57BL/6 female mice; 4 weekly subcutaneous injections of 100 μg with aluminum hydroxide, no disease induction
  signs of disease after immunisation alone: no signs of disease

## TGILDSIGRFFSG (MBP) [SEQ ID NO:5]
C57BL/6 female mice; SEQ ID NO:5 = disease induction, SEQ ID NO:6 = 4 weekly sc 100 μg in aluminum hydroxide before induction
  demyelination by Luxol Fast Blue (LFB) staining: signs of demyelination
C57BL/6 female mice; hematoxilin-eosin and anti-CD3, SEQ ID NO:5 = disease induction, SEQ ID NO:6 = 4 weekly sc 100 μg in aluminum hydroxide before induction
  T lymphocyte / inflammatory infiltrates in the spinal cord: significant infiltrates including T lymphocytes
